Test results from patent US7442807B2, “N-phenylpyrrole guanidine derivatives as melanocortin receptor ligands” (Action Pharma A/S, priority 2001, dated 2008).

How the values were obtained:
MC5 [1] = target: T1, MC5 (Homo sapiens, UniProt P33032); assay: Test 2. Affinity for the MC5-receptors (I125-NDP-αMSH binding); settings: I125-NDP-αMSH as ligand; read-out: Affinity for MC-receptors Ki MC5
Procedure: (§1) Test 2. Affinity for the MC3-receptors, the MC4-receptors and the MC5-receptors
(§2) The binding assays were carried out essentially as described by Szardenings et al, J Biol Chem 1997; 272; 27943-27948 and Schiöth et al, FEBS Lett 1997; 410; 223-228 using I125-NDP-αMSH as ligand.

MC4 [2] = target: T2, MC4 (Homo sapiens, UniProt P32245); assay: Test 2. Affinity for the MC4-receptors (I125-NDP-αMSH binding); settings: I125-NDP-αMSH as ligand; read-out: Affinity for MC-receptors Ki MC4
T2 sequence (P32245 whole entry): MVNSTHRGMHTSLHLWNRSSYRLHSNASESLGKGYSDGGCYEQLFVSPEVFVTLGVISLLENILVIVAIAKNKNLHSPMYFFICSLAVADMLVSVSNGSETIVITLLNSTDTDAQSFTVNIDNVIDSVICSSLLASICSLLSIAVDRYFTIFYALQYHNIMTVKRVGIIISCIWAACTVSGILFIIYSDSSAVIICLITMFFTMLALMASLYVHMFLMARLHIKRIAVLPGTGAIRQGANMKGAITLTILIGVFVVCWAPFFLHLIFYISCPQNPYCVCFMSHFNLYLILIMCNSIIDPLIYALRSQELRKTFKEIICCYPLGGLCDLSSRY
Procedure: as §1, §2

MC4 [3] = target: T2, MC4; assay: Test 3. cAMP stimulation, MC4; type: cell-based; settings: response relative to α-MSH
Procedure: (§3) The stimulation of cAMP was carried out essentially as described by Schiöth et al, Br J Pharmacol 1998; 124; 75-82, however, the response is given relative to α-MSH.

MC3 [4] = target: T3, MC3 (Homo sapiens, UniProt P41968); assay: Test 2. Affinity for the MC3-receptors (I125-NDP-αMSH binding); settings: I125-NDP-αMSH as ligand; read-out: Affinity for MC-receptors Ki MC3
T3 sequence (P41968 whole entry): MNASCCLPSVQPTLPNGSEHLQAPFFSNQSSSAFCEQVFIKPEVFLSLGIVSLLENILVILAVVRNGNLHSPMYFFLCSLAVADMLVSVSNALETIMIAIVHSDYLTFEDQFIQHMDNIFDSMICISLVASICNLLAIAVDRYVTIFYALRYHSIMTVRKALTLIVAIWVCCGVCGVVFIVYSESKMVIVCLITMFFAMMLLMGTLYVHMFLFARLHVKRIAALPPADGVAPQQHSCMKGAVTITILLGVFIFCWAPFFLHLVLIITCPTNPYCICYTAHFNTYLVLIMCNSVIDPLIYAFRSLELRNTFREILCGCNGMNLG
Procedure: as §1, §2

MC5 [5] = target: T1, MC5; assay: Test 3. cAMP stimulation, MC5; type: cell-based; settings: response relative to α-MSH
Procedure: as §3

MC1-receptor = MC1-receptor (Mus musculus, UniProt Q01727); assay: Test 1. Affinity for the MC1-receptor (I125-NDP-αMSH binding); settings: I125-NDP-αMSH as ligand; read-out: Affinity for MC-receptors Ki MC1
MC1-receptor, sequence (Q01727 whole entry): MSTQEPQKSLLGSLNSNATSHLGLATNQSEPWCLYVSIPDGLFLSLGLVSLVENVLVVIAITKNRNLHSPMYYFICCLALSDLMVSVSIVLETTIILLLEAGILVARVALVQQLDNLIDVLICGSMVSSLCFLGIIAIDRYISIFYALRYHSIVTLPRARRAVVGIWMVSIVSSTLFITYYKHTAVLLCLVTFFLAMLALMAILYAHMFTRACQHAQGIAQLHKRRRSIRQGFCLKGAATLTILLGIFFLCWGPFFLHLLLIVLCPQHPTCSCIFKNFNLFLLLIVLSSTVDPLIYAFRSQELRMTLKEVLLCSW
Source text: Test 1. Affinity for the MC1-receptor
The binding assay was cared out essentially as described by Lunec et al, Melanoma Res 1992; 2; 5-12 using I^125-NDP-αMSH as ligand.

MC1 = MC1 (Homo sapiens, UniProt Q01726); assay: Test 3. cAMP stimulation, MC1; type: cell-based; settings: response relative to α-MSH
MC1, sequence (Q01726 whole entry): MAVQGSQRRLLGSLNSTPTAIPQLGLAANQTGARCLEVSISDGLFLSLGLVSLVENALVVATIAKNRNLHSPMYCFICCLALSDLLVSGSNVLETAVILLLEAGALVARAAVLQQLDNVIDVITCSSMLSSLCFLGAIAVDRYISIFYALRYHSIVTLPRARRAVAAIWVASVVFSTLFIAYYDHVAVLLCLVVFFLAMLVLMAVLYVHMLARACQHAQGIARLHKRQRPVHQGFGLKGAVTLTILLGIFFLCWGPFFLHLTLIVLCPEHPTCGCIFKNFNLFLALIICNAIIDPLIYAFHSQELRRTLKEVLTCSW
Procedure: as §3

MC3 [6] = target: T3, MC3; assay: Test 3. cAMP stimulation, MC3; type: cell-based; settings: response relative to α-MSH
Procedure: as §3

T1 sequence (P33032 whole entry): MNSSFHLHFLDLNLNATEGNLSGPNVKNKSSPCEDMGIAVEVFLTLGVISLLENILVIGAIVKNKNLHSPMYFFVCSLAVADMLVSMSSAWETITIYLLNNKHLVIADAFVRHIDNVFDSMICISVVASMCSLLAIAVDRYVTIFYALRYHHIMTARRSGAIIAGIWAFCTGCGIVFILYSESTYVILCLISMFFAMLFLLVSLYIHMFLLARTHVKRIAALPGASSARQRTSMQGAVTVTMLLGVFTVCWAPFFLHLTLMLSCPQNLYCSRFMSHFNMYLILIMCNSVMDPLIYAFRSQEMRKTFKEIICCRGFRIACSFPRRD

| Molecule | Ki (MC5 [1]) [µM] | Ki (MC4 [2]) [µM] | Influence on cAMP: cAMP agonist/plateau stim. α-MSH (%) MC4 (MC4 [3]) [%] | Ki (MC3 [4]) [µM] | Influence on cAMP: cAMP agonist/plateau stim. α-MSH (%) MC5 (MC5 [5]) [%] | Ki (MC1-receptor) [µM] | Influence on cAMP: cAMP agonist/plateau stim. α-MSH (%) MC1 (MC1) [%] | Influence on cAMP: cAMP agonist/plateau stim. α-MSH (%) MC3 (MC3 [6]) [%] |
| --- | --- | --- | --- | --- | --- | --- | --- | --- |
| N=C(N)NN=Cc1cccn1-c1ccc(C(F)(F)F)cc1 [Compound 48, N-[(1-(4-Trifluoromethylphenyl)-1H-pyrrol-2-yl)methyleneamino]guanidine] | 7.8 | 0.07 | – | – | – | – | – | – |
| N=C(N)NN=Cc1cccn1-c1cc(Cl)cc(Cl)c1 [Compound 50, N-[(1-(3,5-dichlorophenyl)-1H-pyrrol-2-yl)methyleneamino]guanidine] | 7.52 | 3.6 | 36 | 12.8 | – | – | – | – |
| N-{1-[(4-Chlorophenyl)-1H-Pyrrol-2-yl]methylene-amino}guanidine [Compound 1] | 17.5 | 5.1 | 118 | 15.6 | 6 | 0.42 | 30 | 35 |
